Measured values reported in article PMC9948168, “Vanillin-Based Indolin-2-one Derivative Bearing a Pyridyl Moiety as a Promising Anti-Breast Cancer Agent via Anti-Estrogenic Activity” (ACS Omega, 2023).

What was measured:
Assay in all cases: NCI-60 one-dose screening
Type in all cases: cell-based
[1] = system: UACC-62; details: Homo sapiens, UACC-62, Melanoma, read-out: GI (%)
[2] = system: M14; details: Homo sapiens, M14, Melanoma, read-out: GI (%)
[3] = system: A549/ATCC; details: Homo sapiens, Non-Small Cell Lung Cancer, read-out: GI (%)
[4] = system: HOP-62; details: Homo sapiens, HOP-62, Non-Small Cell Lung Cancer, read-out: GI (%)
[5] = system: BT-549; details: Homo sapiens, BT-549, Breast Cancer, read-out: GI (%)
[6] = system: SW-620; details: Homo sapiens, SW-620, Colon Cancer, read-out: GI (%)
[7] = system: SK-MEL-2; details: Homo sapiens, SK-MEL-2, Melanoma, read-out: GI (%)
[8] = system: A498; details: Homo sapiens, A498, Renal Cancer, read-out: GI (%)
[9] = system: HCT-116; details: Homo sapiens, HCT-116, Colon Cancer, read-out: GI (%)
[10] = system: CAKI-1; details: Homo sapiens, CAKI-1, Renal Cancer, read-out: GI (%)
[11] = system: NCI-H322M; details: Homo sapiens, Non-Small Cell Lung Cancer, read-out: GI (%)
[12] = system: T-47D; details: Homo sapiens, T47D, Breast Cancer, read-out: GI (%)
[13] = system: SK-OV-3; details: Homo sapiens, SK-OV-3, Ovarian Cancer, read-out: GI (%)
[14] = system: RXF 393; details: Homo sapiens, RXF 393, Renal Cancer, read-out: GI (%)
[15] = system: SR; details: Homo sapiens, Leukemias, read-out: GI (%)
[16] = system: SF-295; details: Homo sapiens, SF-295, CNS Cancer, read-out: GI (%)
[17] = system: HT29; details: Homo sapiens, HT-29, HT29, Colon Cancer, read-out: GI (%)
[18] = system: OVCAR-4; details: Homo sapiens, OVCAR-4, 10 μM; OVCAR-4, Ovarian Cancer; read-out: GI (%)
[19] = system: MDA-MB-231/ATCC; details: Homo sapiens, Breast Cancer, read-out: GI (%)
[20] = system: COLO 205; details: Homo sapiens, COLO 205, Colon Cancer, read-out: GI (%)
[21] = system: ACHN; details: Homo sapiens, Renal Cancer, read-out: GI (%)
[22] = system: SF-539; details: Homo sapiens, SF-539, CNS Cancer, read-out: GI (%)
[23] = system: HOP-92; details: Homo sapiens, HOP-92, Non-Small Cell Lung Cancer, read-out: GI (%)
[24] = system: 786-0; details: Homo sapiens, 786-0, Renal Cancer, read-out: GI (%)
[25] = system: SNB-75; details: Homo sapiens, SNB-75, CNS Cancer, read-out: GI (%)

| SMILES | inhibition at 10 µM [1] [%] | inhibition at 10 µM [2] [%] | inhibition at 10 µM [3] [%] | inhibition at 10 µM [4] [%] | inhibition at 10 µM [5] [%] | inhibition at 10 µM [6] [%] | inhibition at 10 µM [7] [%] | inhibition at 10 µM [8] [%] | inhibition at 10 µM [9] [%] | inhibition at 10 µM [10] [%] | inhibition at 10 µM [11] [%] | inhibition at 10 µM [12] [%] | inhibition at 10 µM [13] [%] | inhibition at 10 µM [14] [%] | inhibition at 10 µM [15] [%] | inhibition at 10 µM [16] [%] | inhibition at 10 µM [17] [%] | inhibition at 10 µM [18] [%] | inhibition at 10 µM [19] [%] | inhibition at 10 µM [20] [%] | other results |
| --- | --- | --- | --- | --- | --- | --- | --- | --- | --- | --- | --- | --- | --- | --- | --- | --- | --- | --- | --- | --- | --- |
| COc1ccc(COc2ccc(/C=C3/C(=O)Nc4ccc(Cl)cc43)cc2OC)cc1 [6i] | 17.9 | 0.06 | -1.42 | 3.08 | -13.3 | 6.24 | -5.26 | -6.49 | 4.18 | 15.4 | 7.01 | -5.11 | -8.16 | -7.98 | 24.1 | -0.88 | -8.29 | -0.39 | -0.06 | -10.1 | inhibition at 10 µM [21]: 5.13%; inhibition at 10 µM [22]: -1.4%; inhibition at 10 µM [23]: 7.13%; inhibition at 10 µM [24]: 0.79%; inhibition at 10 µM [25]: 11% |
| COc1cc(C=C2C(=O)Nc3ccc(Cl)cc32)ccc1OCc1ccc(F)cc1 (mixture of isomers) [6h] | 29.8 | 3.61 | 15.1 | 7.95 | -1.21 | 40.3 | -7.21 | 6.57 | 52.1 | 16.7 | 10.7 | 19.5 | -9.69 | 6.55 | 58.1 | 2.31 | 5.93 | 74 to 97 | 13.1 | 6.56 | inhibition at 10 µM [21]: 47.3%; inhibition at 10 µM [22]: 7.83%; inhibition at 10 µM [23]: 11.7%; inhibition at 10 µM [24]: -0.02%; inhibition at 10 µM [25]: 22.3% |
| COc1cc(C=C2C(=O)Nc3ccc(Cl)cc32)ccc1O (mixture of isomers) [5b] | 87.1 | 18.4 | 3.56 | 16.5 | 25 | -3.74 | 6.25 | 25.6 | 21.2 | 41 | 14.1 | 40.9 | -6.08 | -7.81 | 47.9 | 8.92 | -0.33 | 18.8 | 36.7 | -11.7 | inhibition at 10 µM [21]: 26%; inhibition at 10 µM [22]: 46.4%; inhibition at 10 µM [23]: 34.6%; inhibition at 10 µM [24]: 0.79%; inhibition at 10 µM [25]: 50.1% |
| COc1cc(C=C2C(=O)Nc3ccc(Cl)cc32)ccc1OCc1ccccn1 (mixture of isomers) [6j] | 21.4 | -0.51 | -2.5 | 5.56 | -8.61 | 2.21 | -9.33 | 0.8 | -2.75 | 24.4 | 2.99 | 9.54 | -4.32 | -0.84 | 11.5 | 6.2 | -8.55 | 8.34 | 4.62 | -10.1 | inhibition at 10 µM [21]: 3.24%; inhibition at 10 µM [22]: 4.61%; inhibition at 10 µM [23]: -0.22%; inhibition at 10 µM [24]: -1.2%; inhibition at 10 µM [25]: 14.8% |
| COc1cc(C=C2C(=O)Nc3ccc(Cl)cc32)ccc1OCc1ccc(Cl)cc1 (mixture of isomers) [6g] | 27 | 2.22 | 7.48 | 13.1 | 4.38 | 23 | -8.12 | 13.5 | 49 | 24.2 | 22.9 | 10 | 2.96 | 9.18 | 41.6 | 6.36 | 6.96 | 74 to 97 | 21.6 | -7.05 | inhibition at 10 µM [21]: 71.9%; inhibition at 10 µM [22]: 10.7%; inhibition at 10 µM [23]: 27.8%; inhibition at 10 µM [24]: 4.52%; inhibition at 10 µM [25]: 28.1% |
